Test results taken from US9463254B2, “Molecular design toward dual-modality probes for radioisotope-based imaging (PET or SPECT) and MRI” (Board of Regents, The University of Texas System, priority 2013, dated 2016).

Experiments:
[1] = et al., cited from earlier work; for thermodynamic stability logK: Caravan, 1999
[2] = MRI imaging and relaxivity measurements at 7.0 T; assay type: physicochemical
Method: The T1-weighted MR images of samples in 0.5 mL microfuge tubes were collected using Agilent®/Varian™ 7.0 T ([…], 5 cm diameter volume coil) VNMRj's spin-echo sequence (SEMS) sequence. For imaging, the following parameters were used: TR=200 ms; effective echo time (TE)=11.5 ms; FOV 45×45 mm^2, data matrix=256×256, averaging=2, slice=1 mm, steady-state scans=5, single slice. The T1-maps of the samples at […] was determined from a series of multi-TR (0.005 s to 10 s) saturation-recovery spin-echo sequence (SEMS with minimum TE (11.5 ms); FOV 45×45 mm^2; matrix=128×128; averaging=5, steady state scans=5), fitted and calculated using the ImageJ software. All the fits for T1 values used to calculate the longitudinal relaxivity, r1, had fitting coefficients, R^2≧0.99. Three trials were performed. […] Such changes are well known that T1 relaxivity typically decreases with increasing field strength (Caravan, et al., 1999).

[3] = Relaxivity measurements (T1 relaxivity, Maran Ultra relaxometer); assay type: physicochemical; conditions: 20 MHz, 25° C., Millipore water
Method: The T1 values were recorded at […], 25° C. by using a Maran Ultra relaxometer (Oxford Instruments, UK). Longitudinal relaxation times were measured by using the inversion-recovery pulse sequence (180°-t-90°). The T1 relaxivities were determined by the linear regression analysis of the water proton relaxation rates in solutions ranging in concentration from 0.005 to 12 mM, in Millipore water in triplicate. At 20 MHz, 25° C., the relaxivity of Gd^3+-L was calculated to be 103.5±15 mM^−1 s^−1. Thus, each Gd in the complex accounts for relaxivity of 17.25 mM^−1 s^−1, while under the same conditions, the relaxivity of Gd(DOTA) complex is 3.5 mM^−1 s^−1. The relaxivity value of Gd^3+-L is approximately 400% higher than that of Gd(DOTA). This may be attributed to its higher molecular weight (larger size) and consequently longer rotational correlation time (tR). At ambient conditions (37° C.), the relaxivity value of Gd^3+-L remains unchanged. The measurement of the relaxivity value of Gd^3+-L in rat serum at 25° C. gives an enhanced relaxivity value of 145.5±9.2 mM^−1 s^−1.

[4] = 20 MHz, 39° C.; cited from earlier work

O=C([O-])CN(CCN(CC(=O)[O-])CC(=O)O)CCN(CC(=O)[O-])CC(=O)O.[Gd+3] [Gd-DTPA]
Log K compared with that of Gd-NOTA complex ([1]; Reichert, 1996): about eight orders of magnitude higher

O=C([O-])CN1CCN(CC(=O)[O-])CCN(CC(=O)[O-])CC1.[Gd+3] [Gd-NOTA]
thermodynamic stability logK [1]: 14.3

CNC[C@H](O)[C@@H](O)[C@H](O)[C@H](O)CO.CNC[C@H](O)[C@@H](O)[C@H](O)[C@H](O)CO.O=C([O-])CN(CCN(CC(=O)[O-])CC(=O)O)CCN(CC(=O)[O-])CC(=O)O.[Gd+3] [magnevist]
r1 (longitudinal relaxivity) of the comparator [2]: 4.1 mM^−1 S^1

O=C([O-])CN1CCN(CC(=O)[O-])CCN(CC(=O)[O-])CC1.[Ga+3] [Ga-NOTA]
thermodynamic stability logK [1]: 31.0

gadolinium-1,4,7,10-tetrakis(carboxymethyl) cyclododecane [Gd(DOTA)]
relaxivity [3]: 3.5 mM⁻¹ s⁻¹
thermodynamic stability logK [1]: 24.7

Gadomer-17
ionic relaxivity [4]: 17.3 mM⁻¹ s⁻¹
